Test results: PMC6332200, “Isolation and Identification of Cytotoxic Compounds from Aeschynomene fascicularis, a Mayan Medicinal Plant” (Molecules, 2015)
Where “and” joins values, the source holds several entries; their conditions need not be identical. Equal values may be shown once.

Key:
KB [1] = test: Cytotoxicity MTT assay, KB nasopharynx carcinoma; assay type: cell-based, human; details: Homo sapiens; KB, MTT, 72 h; read-out: Cytotoxic activity CC50
Method: (§1) Three types of cancer cell lines obtained from the American Type Culture Collection (ATCC) were cultured: two oral-laryngeal cancer cell lines, nasopharynx carcinoma (KB, ATCC-CCL-17) and laryngeal carcinoma (Hep-2, ATCC-CCL-23); two cervix-uterine cancer cell lines, cervix adenocarcinoma (HeLa, ATCC-CCL-2) and cervix squamous carcinoma (SiHa, ATCC-HTB-35); and two prostate cancer cell lines, prostate carcinoma (DU-145, ATCC-HTB-81) and prostate adenocarcinoma (PC-3, ATCC-CRL-1435); along with one normal cell line (MDCK, ATCC-CCL-34). The cells were cultured in sterile Costar T75 flasks containing DMEM (Gibco, Hong Kong, China), supplemented with fetal bovine serum (10%, v/v), 100 U/mL penicillin G, and […] streptomycin at 37 °C in an atmosphere of 5% CO2 (95% humidity). At 70%–80% confluence, cells were detached from the cultured flask by treatment with 0.05% trypsin-EDTA (Gibco), and a suspension of 5 × 10^4 cells/mL of viable cells was seeded in a 96-well microtiter plate (Costar, Washington, DC, USA) and incubated. Cytotoxicity was assessed by the MTT assay as previously described by Rahman. When cells reached 90% confluence in a microtiter plate, the DMEM was replaced with fresh medium and cells were incubated with compounds at various concentrations. […] The medium was aspirated, and the formazan product was solubilized with acidified isopropanol (0.4 N HCl). The amount of MTT-formazan is directly proportional to the number of living cells and was determined by measuring the optical density (OD) at 590 nm using a bioassay reader (Bio-Rad). All determinations were performed in triplicate. The cytotoxic and antiproliferative activities of tested compounds were calculated as the percentage of cells killed or the percentage of inhibition of cell proliferation, respectively, using the equation: growth inhibition (%) = (ODcontrol − ODsample/ODcontrol) × 100. […] In addition, the level of cytotoxicity on normal cells was evaluated by determining the selectivity index (SI) of each compound, which is calculated as the ratio of cytotoxicity or reduced cell growth on normal cells to cancer cells (SI = normal cells/cancer cells).

[2] = Cytotoxicity MTT assay, KB nasopharynx carcinoma; assay type: cell-based, human; details: human, MDCK normal cells versus KB nasopharynx carcinoma cells; CC50 MDCK normal cells / KB; read-out: Selectivity index (SI) of cytotoxic activity
Method: as §1

HeLa [3] = test: Antiproliferative sulforhodamine B assay, HeLa; assay type: cell-based, human; details: Homo sapiens; HeLa, SRB, 48 h
Method: (§2) Three types of cancer cell lines obtained from the American Type Culture Collection (ATCC) were cultured: two oral-laryngeal cancer cell lines, nasopharynx carcinoma (KB, ATCC-CCL-17) and laryngeal carcinoma (Hep-2, ATCC-CCL-23); two cervix-uterine cancer cell lines, cervix adenocarcinoma (HeLa, ATCC-CCL-2) and cervix squamous carcinoma (SiHa, ATCC-HTB-35); and two prostate cancer cell lines, prostate carcinoma (DU-145, ATCC-HTB-81) and prostate adenocarcinoma (PC-3, ATCC-CRL-1435); along with one normal cell line (MDCK, ATCC-CCL-34). The cells were cultured in sterile Costar T75 flasks containing DMEM (Gibco, Hong Kong, China), supplemented with fetal bovine serum (10%, v/v), 100 U/mL penicillin G, and […] streptomycin at 37 °C in an atmosphere of 5% CO2 (95% humidity). At 70%–80% confluence, cells were detached from the cultured flask by treatment with 0.05% trypsin-EDTA (Gibco), and a suspension of 5 × 10^4 cells/mL of viable cells was seeded in a 96-well microtiter plate (Costar, Washington, DC, USA) and incubated.
(§3) The growth inhibition of cancer cells was evaluated by the sulforhodamine B method. When cells reached 70% confluence in a microtiter plate, the medium was replaced with DMEM 5% FBS and samples at various concentrations. After 48 h, the medium was discarded, and cells were fixed by adding 50 μL of 10% trichloroacetic acid (TCA, Sigma-Aldrich Chemical, St. Louis, MO, USA). The cells were then incubated at 4 °C for 30 min; TCA was drained off, and the plates were left to dry. Then, 50 μL of SRB stain (10 mg of 1% acetic acid, Sigma) were added to each well for 30 min. Finally, the plates were washed four times with 1% acetic acid (100 μL). The OD was measured at 540 nm using an ELISA reader (Bio-Rad). Docetaxel was used as a positive control, whereas cells incubated only with 0.05% of DMSO were used as a negative control. All determinations were performed in triplicate.
(§4) The cytotoxic and antiproliferative activities of tested compounds were calculated as the percentage of cells killed or the percentage of inhibition of cell proliferation, respectively, using the equation: growth inhibition (%) = (ODcontrol − ODsample/ODcontrol) × 100. […] In addition, the level of cytotoxicity on normal cells was evaluated by determining the selectivity index (SI) of each compound, which is calculated as the ratio of cytotoxicity or reduced cell growth on normal cells to cancer cells (SI = normal cells/cancer cells). It is generally considered that biological efficacy is not due to general toxicity when SI ≥ 10 [17].

Leishmania mexicana = test system: Leishmania mexicana; parameters: method as in PMID 17291734; details: cited from earlier work
SiHa [4] = test: Antiproliferative sulforhodamine B assay, SiHa; assay type: cell-based, human; details: Homo sapiens; SiHa, SRB, 48 h
Method: as §2, §3, §4

SiHa [5] = test: Cytotoxicity MTT assay, SiHa cervix squamous carcinoma; assay type: cell-based, human; details: Homo sapiens; SiHa, MTT, 72 h; read-out: Cytotoxic activity CC50
Method: as §1

PC-3 [6] = test: Cytotoxicity MTT assay, PC-3 prostate adenocarcinoma; assay type: cell-based, human; details: Homo sapiens; PC-3, MTT, 72 h; read-out: Cytotoxic activity CC50
Method: as §1

[7] = as above; assay type: cell-based, human; details: human, MDCK normal cells versus PC-3 prostate adenocarcinoma cells; CC50 MDCK normal cells / PC-3; read-out: Selectivity index (SI) of cytotoxic activity
Method: as §1

DU-145 [8] = test: Antiproliferative sulforhodamine B assay, DU-145; assay type: cell-based, human
Method: as §2, §3, §4

[9] = Cytotoxicity MTT assay, MDCK normal cell line; assay type: cell-based; details: dog, MDCK cells (normal cell line), read-out: Cytotoxic activity CC50
Method: as §1

HeLa [10] = test: Cytotoxicity MTT assay, HeLa cervix adenocarcinoma; assay type: cell-based, human; details: Homo sapiens; HeLa, MTT, 72 h; read-out: Cytotoxic activity CC50
Method: as §1

DU-145 [11] = test: Cytotoxicity MTT assay, DU-145 prostate carcinoma; assay type: cell-based, human; details: Homo sapiens; DU-145, MTT, 72 h; read-out: Cytotoxic activity CC50
Method: as §1

[12] = Cytotoxicity MTT assay, DU-145 prostate carcinoma; assay type: cell-based, human; details: human, MDCK normal cells versus DU-145 prostate carcinoma cells; CC50 MDCK normal cells / DU-145; read-out: Selectivity index (SI) of cytotoxic activity
Method: as §1

KB [13] = test: Antiproliferative sulforhodamine B assay, KB; assay type: cell-based, human; details: Homo sapiens; KB, SRB, 48 h
Method: as §2, §3, §4

PC-3 [14] = test: Antiproliferative sulforhodamine B assay, PC-3; assay type: cell-based; details: Homo sapiens; PC-3, SRB, 48 h
Method: as §2, §3, §4

Hep-2 [15] = test: Antiproliferative sulforhodamine B assay, Hep-2; assay type: cell-based, human; details: Homo sapiens; Hep-2, SRB, 48 h
Method: as §2, §3, §4

Hep-2 [16] = test: Cytotoxicity MTT assay, Hep-2 laryngeal carcinoma; assay type: cell-based, human; details: Homo sapiens; Hep-2, MTT, 72 h; read-out: Cytotoxic activity CC50
Method: as §1

[17] = Cytotoxicity MTT assay, Hep-2 laryngeal carcinoma; assay type: cell-based, human; details: dog MDCK normal cells versus Hep-2 laryngeal carcinoma cells; CC50 MDCK normal cells / Hep-2; read-out: Selectivity index (SI) of cytotoxic activity
Method: as §1

MDCK = test: Antiproliferative sulforhodamine B assay, MDCK normal cell line; assay type: cell-based; details: Canis lupus familiaris, SRB, 48 h
Method: as §2, §3, §4

Trypanosoma cruzi = test system: Trypanosoma cruzi; parameters: method as in PMID 17291734; details: cited from earlier work

With `CC(C)=CCc1c(O)ccc(C(=O)/C=C/c2ccccc2)c1O` [Compound 3, isocordoin] the CC50 (KB [1]) was 11 µg/mL and 27 µM, the selectivity ratio at 72 h [2] was 0.5 and the IC50 (HeLa [3]) was over 100 µM. The “Activity against the parasite Leishmania mexicana” value (Leishmania mexicana) was “active”, the IC50 (SiHa [4]) was over 100 µM and the CC50 (SiHa [5]) was over 100 µg/mL. The CC50 (PC-3 [6]) was 18.4 µg/mL and 60.3 µM, the selectivity ratio at 72 h [7] was 0.23 and the IC50 (DU-145 [8]; Homo sapiens, DU-145, SRB, 48 h) was 13.3 µg/mL and 43.8 µM. The “Selectivity index (SI) of antiproliferative activity” value (DU-145 [8]; IC50 MDCK normal cells / DU-145) was 1.4, the CC50 at 72 h [9] was 4.2 µg/mL and 14 µM and the CC50 (HeLa [10]) was over 100 µg/mL. For the same molecule, the CC50 (DU-145 [11]) was 7 µg/mL and 23.1 µM, the selectivity ratio at 72 h [12] was 0.6 and the IC50 (KB [13]) was over 100 µM. The IC50 (PC-3 [14]) was over 100 µM, the IC50 (Hep-2 [15]) was over 100 µM and the CC50 (Hep-2 [16]) was 6.1 µg/mL and 20 µM. The selectivity ratio at 72 h [17] was 0.7, the IC50 (MDCK) was 18.4 µg/mL and 60.8 µM and the “Activity against the parasite Trypanosoma cruzi” value (Trypanosoma cruzi) was “active”.
